According to paper PMC4049093 (ChemMedChem, 2012):
“Also recorded” adds a separate entry of the source. Read-outs that look alike come from different tables or passages of the source.

Columns and labels:
[1] = target: human cannabinoid CB1 receptor (Homo sapiens, UniProt P21554); test: biochemical; format: binding; settings: for CB1/CB2 selectivity ratio CB1 versus CB2: from Ki values at hCB1 and hCB2
[2] = target: human cannabinoid CB2 receptor (Homo sapiens, UniProt P34972); test: Competitive radioligand binding, displacement of [3H]-CP55,940 from hCB2
Chain of human cannabinoid CB2 receptor (P34972 whole entry): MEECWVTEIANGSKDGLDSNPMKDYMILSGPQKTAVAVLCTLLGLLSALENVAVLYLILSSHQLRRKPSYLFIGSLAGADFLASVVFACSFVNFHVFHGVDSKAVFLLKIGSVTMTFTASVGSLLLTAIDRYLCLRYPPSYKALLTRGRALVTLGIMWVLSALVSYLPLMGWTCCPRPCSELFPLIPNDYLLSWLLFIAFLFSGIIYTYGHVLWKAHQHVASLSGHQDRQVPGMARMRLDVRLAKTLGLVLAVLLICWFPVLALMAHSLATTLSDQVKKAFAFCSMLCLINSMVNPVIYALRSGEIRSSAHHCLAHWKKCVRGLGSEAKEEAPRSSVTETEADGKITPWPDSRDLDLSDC

mouse vas deferens = test: Isolated tissue assay: electrically evoked contractions of mouse vas deferens; settings: 10^−7–1.8 × 10^−5 M, concentration-response curves
mouse cannabinoid tetrad = test: Mouse cannabinoid tetrad; settings: mice, i.p.; WIN 2.5 and 5 mg/kg, 13a 5 and 10 mg/kg

Chain of human cannabinoid CB1 receptor (P21554 whole entry): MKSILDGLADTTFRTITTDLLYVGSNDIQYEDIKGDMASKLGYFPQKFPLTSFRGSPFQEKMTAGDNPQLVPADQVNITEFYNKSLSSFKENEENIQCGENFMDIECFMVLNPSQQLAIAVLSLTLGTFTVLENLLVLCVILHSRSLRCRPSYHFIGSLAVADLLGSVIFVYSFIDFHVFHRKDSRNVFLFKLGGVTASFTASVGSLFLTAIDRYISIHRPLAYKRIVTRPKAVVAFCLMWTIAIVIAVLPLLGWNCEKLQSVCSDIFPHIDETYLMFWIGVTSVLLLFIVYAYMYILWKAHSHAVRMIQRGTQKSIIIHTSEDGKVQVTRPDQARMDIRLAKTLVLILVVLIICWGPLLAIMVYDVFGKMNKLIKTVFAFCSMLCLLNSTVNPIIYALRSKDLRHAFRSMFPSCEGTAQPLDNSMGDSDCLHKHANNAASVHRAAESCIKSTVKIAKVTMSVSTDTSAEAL

CCCCCc1cc(O)c2c(c1)OC(C)(C)c1cn[nH]c1-2 [Compound 7, 1,4-Dihydro-4,4-dimethyl-7-pentylchromen[4,3-c]pyrazol-9-ol]
Binding to CB1 receptor (in words) [1]: failed to bind to either CB1 or CB2 receptors
CB1/CB2 selectivity ratio CB1 versus CB2 [1]: 0.5
Ki ([1]; read-out: hCB1 Ki, [3H]-CP55940 radioligand, membranes of transfected HEK293 EBNA cells, mean ± SEM of at least three experiments): 4.1 ± 0.8 µM
Binding to CB2 receptor (in words) [2]: failed to bind to either CB1 or CB2 receptors
Ki ([2]; read-out: hCB2 Ki, [3H]-CP55940 radioligand, membranes of transfected HEK293 EBNA cells, mean ± SEM of at least three experiments): 2.01 ± 0.5 µM

CCCCCc1cc(O)c2c(c1)OC(C)(C)c1cnn(C)c1-2 [Compound 8a, 1,4-Dihydro-1,4,4-trimethyl-7-pentylchromeno[4,3-c]pyrazol-9-ol]
Binding to CB1 receptor (in words) [1]: failed to bind to either CB1 or CB2 receptors
Ki [1]: 4.7 ± 1.2 µM
CB1/CB2 selectivity ratio CB1 versus CB2 [1]: 0.7
Binding to CB2 receptor (in words) [2]: failed to bind to either CB1 or CB2 receptors
Ki [2]: 3.46 ± 1 µM

CCCCCc1cc(O)c2c(c1)OC(C)(C)c1cn(C)nc1-2 [Compound 8b, 2,4-dihydro-2,4,4-trimethyl-7-pentylchromeno[4,3-c]pyrazol-9-ol]
Binding to CB1 receptor (in words) [1]: failed to bind to either CB1 or CB2 receptors
Ki [1]: 22.1 ± 1.41 µM
Binding to CB2 receptor (in words) [2]: failed to bind to either CB1 or CB2 receptors
Ki [2]: > 40 µM

CCCCCc1cc(O)c2c(c1)OC(C)(C)c1cnn(CC)c1-2 [Compound 9a, 1-Ethyl-1,4-dihydro-4,4-dimethyl-7-pentylchromeno[4,3-c]pyrazol-9-ol]
Binding to CB1 receptor (in words) [1]: failed to bind to either CB1 or CB2 receptors
Ki [1]: 9.61 µM
Binding to CB2 receptor (in words) [2]: failed to bind to either CB1 or CB2 receptors
Ki [2]: > 40 µM

CCCCCc1cc(O)c2c(c1)OC(C)(C)c1cn(CC)nc1-2 [Compound 9b, 2-Ethyl-2,4-dihydro-4,4-dimethyl-7-pentylchromeno[4,3-c]pyrazol-9-ol]
Binding to CB1 receptor (in words) [1]: failed to bind to either CB1 or CB2 receptors
Ki [1]: > 40 µM
Binding to CB2 receptor (in words) [2]: failed to bind to either CB1 or CB2 receptors
Ki [2]: 4.45 ± 1.01 µM

CCCCCc1cc(O)c2c(c1)OC(C)(C)c1cnn(-c3ccc(Cl)c(Cl)c3)c1-2 [Compound 10a, 1-(3,4-Dichlorophenyl)-1,4-dihydro-4,4-dimethyl-7-pentylchromeno[4,3-c]pyrazol-9-ol]
Binding to CB1 receptor (in words) [1]: binds weakly to the CB1 cannabinoid receptor
Ki [1]: 0.607 ± 0.151 µM
Ki [2]: > 40 µM

CCCCCCC(C)(C)c1cc(O)c2c(c1)OC(C)(C)c1cn[nH]c1-2 [Compound 11, 1,4-Dihydro-4,4-dimethyl-7-(1,1-dimethylheptyl)chromeno[4,3-c]pyrazol-9-ol]
CB1/CB2 selectivity ratio CB1 versus CB2 [1]: >1000
Ki [2]: > 40 µM

CCCCCCC(C)(C)c1cc(O)c2c(c1)OC(C)(C)c1cn(C)nc1-2 [Compound 12b, 7-(1,1-Dimethylheptyl)-2,4-dihydro-2,4,4-trimethylchromeno[4,3-c]pyrazol-9-ol]
CB1/CB2 selectivity ratio CB1 versus CB2 [1]: >1000
Ki [2]: > 40 µM

CCCCCCC(C)(C)c1cc(O)c2c(c1)OC(C)(C)c1cnn(CC)c1-2 [Compound 13a, 7-(1,1-Dimethylheptyl)-1-ethyl-1,4-dihydro-4,4-dimethylchromeno[4,3-c]pyrazol-9-ol]
CB1/CB2 selectivity ratio CB1 versus CB2 [1]: >1000
Ki [2]: > 40 µM
Effect on electrically evoked contractile response of mouse vas deferens (mouse vas deferens): highest effectiveness; also recorded: most effective cannabinoid agonist
Antinociception in the hot-plate test (cannabinoid tetrad) (mouse cannabinoid tetrad): did not modify any of the signs of cannabinoid tetrad
Catalepsy on a ring (cannabinoid tetrad) (mouse cannabinoid tetrad): did not modify any of the signs of cannabinoid tetrad
Locomotor activity on the rota-rod test (cannabinoid tetrad) (mouse cannabinoid tetrad): did not modify any of the signs of cannabinoid tetrad
Rectal temperature / hypothermia (cannabinoid tetrad) (mouse cannabinoid tetrad): did not modify any of the signs of cannabinoid tetrad

CCCCCCC(C)(C)c1cc(O)c2c(c1)OC(C)(C)c1cn(CC)nc1-2 [Compound 13b, 7-(1,1-dimethylheptyl)-2-ethyl-2,4-dihydro-4,4-dimethylchromeno[4,3-c]pyrazol-9-ol]
CB1/CB2 selectivity ratio CB1 versus CB2 [1]: >1000
Ki [2]: > 40 µM

CCCCCCC(C)(C)c1cc(O)c2c(c1)OC(C)(C)c1cnn(-c3ccc(Cl)c(Cl)c3)c1-2 [Compound 14a, 1-(3,4-Dichlorophenyl)-7-(1,1-dimethylheptyl)-1,4-dihydro-4,4-dimethylchromeno[4,3-c]pyrazol-9-ol]
Binding to CB1 receptor (in words) [1]: reduced affinity for both receptors; also recorded: loss of affinity for CB1
CB1/CB2 selectivity ratio CB1 versus CB2 [1]: 0.5
Binding to CB2 receptor (in words) [2]: reduced affinity for both receptors; also recorded: moderate affinity for CB2 receptor

CCCCCCC(C)(C)c1cc(O)c2c(c1)OC(C)(C)c1cnn(-c3ccc(Cl)cc3Cl)c1-2 [Compound 15a, 1-(2,4-Dichlorophenyl)-7-(1,1-dimethylheptyl)-1,4-dihydro-4,4-dimethylchromeno[4,3-c]pyrazol-9-ol]
CB1/CB2 selectivity ratio CB1 versus CB2 [1]: >1000
Ki [2]: > 40 µM

Cc1c(C(=O)c2cccc3ccccc23)c2cccc3c2n1[C@H](CN1CCOCC1)CO3 [WIN55,212-2, reference compound]
Antinociception in the hot-plate test (cannabinoid tetrad) (mouse cannabinoid tetrad): induced antinociceptive effect in the hot-plate test
Catalepsy on a ring (cannabinoid tetrad) (mouse cannabinoid tetrad): catalepsy
Locomotor activity on the rota-rod test (cannabinoid tetrad) (mouse cannabinoid tetrad): reduction of the locomotor activity
Rectal temperature / hypothermia (cannabinoid tetrad) (mouse cannabinoid tetrad): hypothermia
